Reference: patent US12144840B2, “Method for treating or preventing benign prostatic hyperplasia” (priority 2017, dated 2024)
“And” between values parts separate entries of the source, which are not always exact repeats. Equal entries are not always repeated. Where two headings read alike, the source gives them in different places.

How the values were obtained:
[1] = tested on: testosterone-induced benign prostatic hyperplasia; type: in vivo, male Wistar rats; conditions: BPH rats; for Ratio (b/a* 100): prostate weight/body weight
Protocol: (§1) After 6-week-old male Wistar rats (Samtako, Korea) were obtained and acclimated for one week, six animals constituted each test group when each animal weighed 340-350 g.
(§2) As for the test configuration, the animals were divided into groups without testicle removal and groups undergoing […] recovery after testicle removal, and each group was subcutaneously injected with 5 mg/kg testosterone to induce benign prostatic hyperplasia for weeks (BPH induced group). Test groups were constructed by oral administration of Aucklandiae Radix extracts and costunolide at different concentrations (mg/kg) once a day, seven times a week, for 8 weeks.
After the completion of the test, the rats of all the test groups were euthanized, and then prostate tissue and main organs were extracted, and weights and volumes thereof were measured using an electronic scale for animal weights and a caliper (mm^3) (Table 2).

prostate tissue = test: Prostate pathology biopsy (H&E) in BPH model rats; type: in vivo, male Wistar rats; conditions: oral once a day, 8 weeks
Protocol: as §1
as §2, with “weeks. Positive control groups were used by oral administration of finasteride, which has been used as a medicine for benign prostatic hyperplasia.” for “weeks.”
After the completion of the test, the prostate tissue extracted from each group was fixed with 10% neutral formalin and stored. The tissue of each group was processed into paraffin blocks, and slides for microscopic inspection of tissue were manufactured and stained with hematoxylin & eosin (H&E). The microscopic inspection of tissue was conducted through a microscope (Olympus, Tokyo, Japan) at a magnification of X200.

RAW 264.7 cells [2] = test: Inflammatory cytokine (IL-1β, IL-6, TNF-α) levels by ELISA in LPS-activated macrophages; type: cell-based; conditions: 200 ng LPS, various concentrations, 18 hours, vs cells treated with only LPS (FIG. 2)
Protocol: (§3) RAW 264.7 cells, which were macrophages used in the present tests, were available from American Type Culture Collection (ATCC). These cells were cultured in CO2 incubator (Formascientific, Inc.) using DMEM containing 10% fetal bovine serum (FBS). The differentiation of cells was observed through microscopic observation, and then the cells were used in the tests.
RAW 264.7 cells were treated with 200 ng/ ? LPS while simultaneously treated with various concentrations (μg/ ? ) of Aucklandiae Radix extracts (EtOH 30% and 70%) and costunolide, and then the cells were cultured in a 37° C., 5% CO2 incubator for 18 hours. After 18 hours, ELISA analysis kits (eBioScience 88-7013, 88-7064 USA, BD 555268 USA) were used to check the levels of the inflammatory cytokines IL-1β, IL-6, and TNF-α in the supernatant of each group.

RAW 264.7 cells [3] = test: Nitric oxide (NO) change in LPS-activated macrophages (Griess reagent); type: cell-based; conditions: 200 ng LPS, various concentrations, 18 hours, vs LPS alone; dose-dependent (FIG. 1)
Protocol: as §3
To induce the activation of macrophages, RAW 264.7 cells were treated with 200 ng/ ? lipopolysaccharide (LPS) while simultaneously treated with various concentrations (μg/ ? ) of a 100% methanol extract of Aucklandiae Radix (expressed by MeOH 100%), a 30% ethanol extract of Aucklandiae Radix (expressed by EtOH 30%), and a 70% ethanol extract of Aucklandiae Radix (expressed by EtOH 70%), and costunolide, and then the cells were cultured in a 37° C., 5% CO2 incubator for 18 hours. After 18 hours, 100 ? of the supernatant was transferred to a new plate for each group, and 100 ? of a solution, in which Griess reagent A (2% sulfanilamide in 5% phosphoric acid) and Greiss reagent B (0.2% naphthylethylenediamine dihydrochloride) were mixed at a rate of 1:1, was added thereto. Thereafter, the absorbance was measured at 540 nm.

[4] = type: in vivo, male Wistar rats
Protocol: as §1
as §2, with “weeks. Positive control groups were used by oral administration of finasteride, which has been used as a medicine for benign prostatic hyperplasia.” for “weeks.”
For analysis of biochemical markers in serum, blood was obtained through the abdominal vein from rats of all the groups at necropsy. The blood was coagulated for about 30 minutes, and then centrifuged for 5 minutes at 10,000 rpm to separate serum. After serum separation, a biochemistry analyzer (AU480, Beckman Coulter, USA) was used to check liver function (AST, ALP), lipoprotein (total cholesterol (T-CHO)), HDL cholesterol (HDL-C), LDL cholesterol (LDL-C)), and kidney function ([…]) levels (Table 3).

[5] = positive control group, oral, dose not given
[6] = oral 0.075 mg/kg once a day, 8 weeks

## CC(C)(C)NC(=O)[C@H]1CC[C@H]2[C@@H]3CC[C@H]4NC(=O)C=C[C@]4(C)[C@H]3CC[C@]12C [Fina, finasteride]
[1]; [5]
  Body Weight (a): 379 g and 415 g
  Prostate Weight (b): 1.23 g and 1.42 g
  Prostate volume: 2,322 mm^3 and 4,255 mm^3
  Speen weight: 0.60 g and 0.70 g
  Ratio (b/a* 100): 0.29 and 0.34

## C=C1C(=O)O[C@@H]2/C=C(\C)CC/C=C(\C)CC[C@@H]12 [costunolide]
[1]; costunolide administration groups, printed as 0.075 μg/, compared with finasteride administration groups (FIG. 3)
  prostate weights and volumes: significant reduction effect
[1]; [6]
  Body Weight (a): 433 g
  Liver weight: 10.72 g
  Prostate Weight (b): 1.40 g
  Prostate volume: 4,126 mm^3
  Speen weight: 0.62 g
  Ratio (b/a* 100): 0.32
Prostate tissue; compared with the benign prostatic hyperplasia induced group (FIGS. 4 and 5)
  endothelial thicknesses of prostate tissue (H&E, X200): significantly reduced
Prostate tissue; similar to the normal control group (FIGS. 4 and 5)
  alveolar glands of prostate tissue (H&E, X200): maintained in a round shape without atrophy
RAW 264.7 cells [2]
  secretion levels of the inflammatory cytokines (IL-1β, IL-6, TNF-α): decreases
RAW 264.7 cells [3]
  amount of NO: significantly decreased
[4]; BPH rats, oral once a day, 8 weeks, all administered groups
  serum liver function, lipoprotein and kidney function levels (hepatoxicity and kidney toxicity): no significant changes
[4]; rat, in vivo, po, 0.075 mg/kg
  ALP: 61.17 U/L
  AST: 78.33 U/L
  CRE: 0.27 mg/dL
  HDL: 51.50 mg/dL
  LDL: 13.17 mg/dL
  T-CHO: 79.67 mg/dL
